Reference: patent US10450356B2, “PRAME derived peptides and immunogenic compositions comprising these” (Academisch Ziekenhuis Leiden H.O.D.N. LUMC, priority 2007, dated 2019)
Marks after values point to notes of the source that are not given here.

Molecular target: T1, 20S proteasomes purified from a B-LCL cell line (immunoproteasomes) (Homo sapiens, UniProt P28062+P28065+P40306)
T1 construct: 20S proteasomes were purified from a B-LCL cell line; endogenous in cells; purified after Groettrup et al. 1995
Assay: In vitro proteasome mediated cleavage analysis
Format: biochemical
Set-up: key to Intact in fragment / Intact Fragment: intact epitope found in digestion fragments: (+), present; (-), not present; key to Processing C-term: generation by proteasome-mediated digestion of fragments containing the correct C-terminus: (++) fragments present for >5%; (+) present for <5%; (-) no fragments containing the C-term. were found
Settings: for Processing C-term: generation by proteasome-mediated digestion of fragments containing the correct C-terminus: 1 h digestion; for Intact Fragment: intact epitope found in digestion fragments: after 1 h digestion; for C-term. generation: generation of C-terminus of the epitope after 1 h digestion; for Intact in fragment: intact epitope found in digestion fragments after 1 h digestion
Protocol: 20S proteasomes were purified from a B-LCL cell line as described by Groettrup et al. (J. Biol. Chem. 270:23808-23815; 1995). This cell type is known to contain immunoproteasomes. High LMP2 and 7 content was confirmed by 2-D immuno-blotting. To assess kinetics, digestions were performed with different incubation periods. Peptides (27 mers, 20 μg) were incubated with 1 μg of purified proteasome at 37° C. for 1 h, 4 h and 24 h in 300 μl proteasome digestion buffer as described (Eggers, et al. 1995. J. Exp. Med. 182:1865). Trifluoroacetic acid was added to stop the digestion and samples were stored at −20° C. before mass spectrometric analysis.
Electrospray ionization mass spectrometry was performed on a hybrid quadrupole time-of-flight mass spectrometer, a Q-TOF (Micromass), equipped with an on-line nanoelectrospray interface with an approximate flow rate of 250 nL/min. Injections were done with a dedicated micro/nano HPLC autosampler, the FAMOS (LC Packings). Digestion solutions were diluted five times in water-methanol-acetic acid (95:5:1, v/v/v), and trapped on the precolumn (MCA-300-05-C8; LC Packings) in water-methanol-acetic acid (95:5:1, v/v/v). Washing of the precolumn was done for 3 min to remove the buffers present in the digests. Subsequently, the trapped analytes were eluted with a steep gradient going from 70% B to 90% B in 10 min, with a flow of 250 nl/min (A: water-methanol-acetic acid (95:5:1, v/v/v); B: water-methanol-acetic acid (10:90:1, v/v/v)). This low elution rate allows for a few additional MS/MS experiments if necessary during the same elution. Mass spectra were recorded from mass 50-2000 Da every second. The resolution allows direct determination of the monoisotopic mass, also from multiple charged ions. The peaks in the mass spectrum were searched in the digested precursor peptide using the Biolynx/proteins software (Micromass). The intensity of the peaks in the mass spectra was used to establish the relative amounts of peptides generated by proteasome digestion.

Compound | Processing C-term: generation by proteasome-mediated digestion of fragments containing the correct C-terminus | Intact Fragment: intact epitope found in digestion fragments | C-term. generation | Intact in fragment
CC(C)C[C@H](NC(=O)[C@@H](NC(=O)[C@@H]1CCCN1C(=O)[C@H](CC(C)C)NC(=O)[C@H](CCCCN)NC(=O)[C@H](Cc1c[nH]c2ccccc12)NC(=O)[C@@H](NC(=O)[C@@H](N)CS)[C@@H](C)O)[C@@H](C)O)C(=O)N[C@@H](C)C(=O)N[C@@H](CCCCN)C(=O)O | - | - |  | 
CC(C)C[C@H](NC(=O)[C@@H](NC(=O)[C@@H]1CCCN1C(=O)[C@H](CC(C)C)NC(=O)[C@H](CCCCN)NC(=O)[C@H](Cc1c[nH]c2ccccc12)NC(=O)[C@@H](NC(=O)[C@@H](N)CS)[C@@H](C)O)[C@@H](C)O)C(=O)N[C@@H](C)C(=O)O | - | - |  | 
CC[C@H](C)[C@H](NC(=O)[C@H](CCSC)NC(=O)[C@H](CCC(N)=O)NC(=O)CNC(=O)[C@H](CC(C)C)NC(=O)[C@H](Cc1ccc(O)cc1)NC(=O)[C@@H]1CCCN1C(=O)[C@H](CO)NC(=O)[C@H](Cc1ccccc1)NC(=O)[C@@H](N)CCCCN)C(=O)O | - | - |  | 
CC[C@H](C)[C@H](NC(=O)[C@H](CC(=O)O)NC(=O)[C@H](CCC(N)=O)NC(=O)[C@H](CCSC)NC(=O)[C@@H]1CCCN1C(=O)[C@H](CCSC)NC(=O)[C@H](C)NC(=O)[C@H](Cc1ccccc1)NC(=O)[C@@H](NC(=O)[C@@H](N)CCCCN)[C@@H](C)CC)C(=O)O | - | - |  | 
CC(C)C[C@H](NC(=O)[C@H](C)NC(=O)[C@H](CCC(N)=O)NC(=O)[C@H](CC(C)C)NC(=O)[C@H](CS)NC(=O)[C@H](CCC(N)=O)NC(=O)[C@H](CC(C)C)NC(=O)[C@H](CO)NC(=O)[C@@H](N)CC(C)C)C(=O)N[C@@H](Cc1ccc(O)cc1)C(=O)O | - | - |  | 
CC(C)C[C@H](NC(=O)[C@H](Cc1ccccc1)NC(=O)[C@H](Cc1ccccc1)NC(=O)[C@H](CC(C)C)NC(=O)[C@H](CO)NC(=O)[C@H](CC(=O)O)NC(=O)[C@@H](NC(=O)[C@H](Cc1ccc(O)cc1)NC(=O)[C@@H](N)CC(C)C)C(C)C)C(=O)O | ++ ((++) fragments present for >5%) | + | ++ (abundant (++) present for >5%) | +
CC[C@H](C)[C@H](NC(=O)[C@H](CCSC)NC(=O)[C@H](CCC(N)=O)NC(=O)CNC(=O)[C@H](CC(C)C)NC(=O)[C@H](Cc1ccc(O)cc1)NC(=O)[C@@H]1CCCN1)C(=O)N[C@@H](CC(N)=O)C(=O)N[C@@H](CC(C)C)C(=O)O | +^(k) ((+) present for <5%) | + |  | +
CC(C)C[C@H](NC(=O)[C@H](CO)NC(=O)[C@H](CC(C)C)NC(=O)[C@H](Cc1ccccc1)NC(=O)[C@H](CCC(N)=O)NC(=O)[C@H](CO)NC(=O)[C@@H](NC(=O)[C@H](Cc1ccccc1)NC(=O)[C@@H](N)CCC(N)=O)[C@@H](C)O)C(=O)O | ++ ((++) fragments present for >5%) |  | ++ (abundant (++) present for >5%) | 
CC[C@H](C)[C@H](NC(=O)[C@H](CO)NC(=O)CNC(=O)[C@H](Cc1c[nH]c2ccccc12)NC(=O)[C@H](CC(C)C)NC(=O)[C@@H](N)CCCNC(=N)N)C(=O)N[C@@H](CCC(N)=O)C(=O)N[C@@H](CO)C(=O)N[C@@H](CCCNC(=N)N)C(=O)N[C@@H](Cc1ccc(O)cc1)C(=O)O | - | - |  | 
CC(C)C[C@H](NC(=O)[C@H](Cc1ccc(O)cc1)NC(=O)[C@@H]1CCCN1C(=O)[C@H](CO)NC(=O)[C@H](Cc1ccccc1)NC(=O)[C@H](CCCCN)NC(=O)[C@H](C)NC(=O)[C@H](CC(C)C)NC(=O)[C@@H](N)[C@@H](C)O)C(=O)O | + ((+) present for <5%) | + | + (low abundant (+) present for <5%) | +
CC[C@H](C)[C@H](NC(=O)[C@@H](N)Cc1ccc(O)cc1)C(=O)N[C@@H](C)C(=O)N[C@@H](CCC(N)=O)C(=O)N[C@@H](Cc1ccccc1)C(=O)N[C@H](C(=O)N[C@@H](CO)C(=O)N[C@@H](CCC(N)=O)C(=O)N[C@@H](Cc1ccccc1)C(=O)N[C@@H](CC(C)C)C(=O)O)[C@@H](C)O | ++ ((++) fragments present for >5%) | + | ++ (abundant (++) present for >5%) | +
CC[C@H](C)[C@H](NC(=O)[C@H](CCSC)NC(=O)[C@H](CCC(N)=O)NC(=O)CNC(=O)[C@H](CC(C)C)NC(=O)[C@@H](N)Cc1ccc(O)cc1)C(=O)N[C@@H](CC(N)=O)C(=O)N[C@@H](CC(C)C)C(=O)N[C@@H](CCCNC(=N)N)C(=O)N[C@@H](CCCNC(=N)N)C(=O)O | - | - |  | 

The next lines start with the values.

Processing C-term: generation by proteasome-mediated digestion of fragments containing the correct C-terminus | Intact Fragment: intact epitope found in digestion fragments | C-term. generation | Intact in fragment | Compound
- | - |  |  | CC(C)C[C@H](NC(=O)[C@H](CCC(N)=O)NC(=O)[C@H](CC(=O)O)NC(=O)[C@H](CC(C)C)NC(=O)[C@H](CCCNC(=N)N)NC(=O)CNC(=O)[C@H](CCCNC(=N)N)NC(=O)[C@H](CC(C)C)NC(=O)[C@H](Cc1ccccc1)NC(=O)[C@@H](N)Cc1ccccc1)C(=O)O
- | - |  |  | CC[C@H](C)[C@H](N)C(=O)N[C@@H](Cc1ccccc1)C(=O)N[C@@H](C)C(=O)N[C@@H](CCSC)C(=O)N1CCC[C@H]1C(=O)N[C@@H](CCSC)C(=O)N[C@@H](CCC(N)=O)C(=O)N[C@@H](CC(=O)O)C(=O)N[C@H](C(=O)O)[C@@H](C)CC
- | - |  |  | CC(C)C[C@H](NC(=O)[C@H](CC(C)C)NC(=O)[C@H](CC(C)C)NC(=O)[C@H](CCCNC(=N)N)NC(=O)[C@H](CCCNC(=N)N)NC(=O)[C@H](CC(C)C)NC(=O)[C@@H](N)CC(N)=O)C(=O)N[C@@H](CO)C(=O)N[C@@H](Cc1c[nH]cn1)C(=O)O
- | - |  |  | CC(C)C[C@H](NC(=O)[C@@H](NC(=O)[C@@H]1CCCN1)[C@@H](C)O)C(=O)N[C@@H](C)C(=O)N[C@@H](CCCCN)C(=O)N[C@@H](Cc1ccccc1)C(=O)N[C@@H](CO)C(=O)N1CCC[C@H]1C(=O)N[C@@H](Cc1ccc(O)cc1)C(=O)O
++ ((++) fragments present for >5%) | + | ++ (abundant (++) present for >5%) | + | CC[C@H](C)[C@H](NC(=O)[C@H](Cc1ccc(O)cc1)NC(=O)[C@@H](N)CCC(N)=O)C(=O)N[C@@H](C)C(=O)N[C@@H](CCC(N)=O)C(=O)N[C@@H](Cc1ccccc1)C(=O)N[C@H](C(=O)N[C@@H](CO)C(=O)N[C@@H](CCC(N)=O)C(=O)N[C@@H](Cc1ccccc1)C(=O)O)[C@@H](C)O
+ ((+) present for <5%) | - |  |  | CC(C)C[C@H](NC(=O)[C@H](C)NC(=O)[C@H](CCC(N)=O)NC(=O)[C@H](CC(C)C)NC(=O)[C@H](CS)NC(=O)[C@H](CCC(N)=O)NC(=O)[C@H](CC(C)C)NC(=O)[C@@H](N)CO)C(=O)N[C@@H](Cc1ccc(O)cc1)C(=O)N[C@H](C(=O)O)C(C)C
+ ((+) present for <5%) | - |  |  | CC(C)C[C@H](NC(=O)[C@H](Cc1ccccc1)NC(=O)[C@H](Cc1ccccc1)NC(=O)[C@H](CC(C)C)NC(=O)[C@H](CO)NC(=O)[C@H](CC(=O)O)NC(=O)[C@@H](NC(=O)[C@@H](N)Cc1ccc(O)cc1)C(C)C)C(=O)N[C@@H](CCCNC(=N)N)C(=O)O
